Data as given in PubChem BioAssay (NCI).
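The concentration for 50% growth inhibition is given as GI50. Definition used: TGI = concentration required for complete inhibition of growth.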

Tests used:
Assay in all cases: NCI anticancer screen, dose series, 384-well format; in the data active means GI50 below about 0.43 µM; inactive means the rest
786-0 renal = system: 786-0 renal
A498 renal = system: A498 renal
A549 NSCLC = system: A549 NSCLC
ACHN renal = system: ACHN renal
BT-549 breast = system: BT-549 breast
CAKI-1 renal = system: CAKI-1 renal
CCRF-CEM leukemia = system: CCRF-CEM leukemia
COLO 205 colon = system: COLO 205 colon
DU-145 prostate = system: DU-145 prostate
EKVX NSCLC = system: EKVX NSCLC
HCC-2998 colon = system: HCC-2998 colon
HCT-15 colon = system: HCT-15 colon
HL-60(TB) leukemia = system: HL-60(TB) leukemia
HOP-62 NSCLC = system: HOP-62 NSCLC
HOP-92 NSCLC = system: HOP-92 NSCLC
HS 578T breast = system: HS 578T breast
HT29 colon = system: HT29 colon
IGROV1 ovarian = system: IGROV1 ovarian
K-562 leukemia = system: K-562 leukemia
KM12 colon = system: KM12 colon
LOX IMVI melanoma = system: LOX IMVI melanoma
M14 melanoma = system: M14 melanoma
MALME-3M melanoma = system: MALME-3M melanoma
MCF7 breast = system: MCF7 breast
MDA-MB-231 breast = system: MDA-MB-231 breast
MDA-MB-435 melanoma = system: MDA-MB-435 melanoma
MDA-MB-468 breast = system: MDA-MB-468 breast
MOLT-4 leukemia = system: MOLT-4 leukemia
NCI-H226 lung = system: NCI-H226 lung
NCI-H23 lung = system: NCI-H23 lung
NCI-H322M lung = system: NCI-H322M lung
NCI-H460 NSCLC = system: NCI-H460 NSCLC
NCI-H522 lung = system: NCI-H522 lung
NCI/ADR-RES ovarian = system: NCI/ADR-RES ovarian
OVCAR-3 ovarian = system: OVCAR-3 ovarian
OVCAR-4 ovarian = system: OVCAR-4 ovarian
OVCAR-5 ovarian = system: OVCAR-5 ovarian
OVCAR-8 ovarian = system: OVCAR-8 ovarian
PC-3 prostate = system: PC-3 prostate
RPMI-8226 leukemia = system: RPMI-8226 leukemia
RXF 393 renal = system: RXF 393 renal
SF-268 CNS = system: SF-268 CNS
SF-295 CNS = system: SF-295 CNS
SF-539 CNS = system: SF-539 CNS
SK-MEL-28 melanoma = system: SK-MEL-28 melanoma
SK-MEL-5 melanoma = system: SK-MEL-5 melanoma
SK-OV-3 ovarian = system: SK-OV-3 ovarian
SN12C renal = system: SN12C renal
SNB-19 CNS = system: SNB-19 CNS
SNB-75 CNS = system: SNB-75 CNS
SR leukemia = system: SR leukemia
SW-620 colon = system: SW-620 colon
T-47D breast = system: T-47D breast
TK-10 renal = system: TK-10 renal
UACC-257 melanoma = system: UACC-257 melanoma
UACC-62 melanoma = system: UACC-62 melanoma
UO-31 renal = system: UO-31 renal

[2H]C([2H])([2H])NC(=O)c1nnc(NC(=O)C2CC2)cc1Nc1cccc(-c2ncn(C)n2)c1OC
48.6 µM: TGI (CCRF-CEM leukemia)
36.8 µM: TGI (MOLT-4 leukemia)
inactive: GI50 ([…]-0 renal) 66.2 µM | GI50 (A498 renal) 6.3 µM | GI50 (A549 NSCLC) 84.4 µM | GI50 (ACHN renal) 16.6 µM | GI50 (BT-549 breast) > 100 µM | GI50 (CAKI-1 renal) 14.6 µM | GI50 (CCRF-CEM leukemia) 16.6 µM | GI50 (COLO 205 colon) > 100 µM | GI50 (DU-145 prostate) 16.4 µM | GI50 (EKVX NSCLC) > 100 µM | GI50 (HCC-2998 colon) > 100 µM | GI50 (HCT-15 colon) 12.9 µM | GI50 (HL-60(TB) leukemia) 10.9 µM | GI50 (HOP-62 NSCLC) 25.1 µM | GI50 (HOP-92 NSCLC) 25.4 µM | GI50 (HS 578T breast) 18 µM | GI50 (HT29 colon) > 100 µM | GI50 (IGROV1 ovarian) 26.4 µM | GI50 (K-562 leukemia) 43.4 µM | GI50 (KM12 colon) 30.2 µM | GI50 (LOX IMVI melanoma) 25 µM | GI50 (M14 melanoma) 22.8 µM | GI50 (MALME-3M melanoma) 32.2 µM | GI50 (MCF7 breast) > 100 µM | GI50 (MDA-MB-231 breast) 29.2 µM | GI50 (MDA-MB-435 melanoma) > 100 µM | GI50 (MDA-MB-468 breast) 13.3 µM | GI50 (MOLT-4 leukemia) 15.9 µM | GI50 (NCI-H226 lung) 43.9 µM | GI50 (NCI-H23 lung) 43.7 µM | GI50 (NCI-H322M lung) 23.3 µM | GI50 (NCI-H460 NSCLC) 21.3 µM | GI50 (NCI-H522 lung) 79.1 µM | GI50 (NCI/ADR-RES ovarian) 37.4 µM | GI50 (OVCAR-3 ovarian) 41.6 µM | GI50 (OVCAR-4 ovarian) > 100 µM | GI50 (OVCAR-5 ovarian) > 100 µM | GI50 (OVCAR-8 ovarian) 43.6 µM | GI50 (PC-3 prostate) 77.9 µM | GI50 (RPMI-8226 leukemia) 3.93 µM | GI50 (RXF 393 renal) > 100 µM | GI50 (SF-268 CNS) > 100 µM | GI50 (SF-295 CNS) 33.2 µM | GI50 (SF-539 CNS) 79.2 µM | GI50 (SK-MEL-28 melanoma) 72.9 µM | GI50 (SK-MEL-5 melanoma) 36.8 µM | GI50 (SK-OV-3 ovarian) 5.93 µM | GI50 (SN12C renal) 32.6 µM | GI50 (SNB-19 CNS) 87.4 µM | GI50 (SNB-75 CNS) 87.9 µM | GI50 (SR leukemia) 29.9 µM | GI50 (SW-620 colon) 93.5 µM | GI50 (T-47D breast) > 100 µM | GI50 (TK-10 renal) > 100 µM | GI50 (UACC-257 melanoma) > 100 µM | GI50 (UACC-62 melanoma) 25.5 µM | GI50 (UO-31 renal) > 100 µM
42.3 µM: TGI (MDA-MB-468 breast)
84.9 µM: TGI (HOP-62 NSCLC)
87.6 µM: TGI (SK-OV-3 ovarian)
> 100 µM: TGI (786-0 renal) | TGI (A498 renal) | TGI (A549 NSCLC) | TGI (ACHN renal) | TGI (BT-549 breast) | TGI (CAKI-1 renal) | TGI (COLO 205 colon) | TGI (DU-145 prostate) | TGI (EKVX NSCLC) | TGI (HCC-2998 colon) | TGI (HCT-15 colon) | TGI (HOP-92 NSCLC) | TGI (HS 578T breast) | TGI (HT29 colon) | TGI (IGROV1 ovarian) | TGI (K-562 leukemia) | TGI (KM12 colon) | TGI (LOX IMVI melanoma) | TGI (M14 melanoma) | TGI (MALME-3M melanoma) | TGI (MCF7 breast) | TGI (MDA-MB-231 breast) | TGI (MDA-MB-435 melanoma) | TGI (NCI-H226 lung) | TGI (NCI-H23 lung) | TGI (NCI-H322M lung) | TGI (NCI-H460 NSCLC) | TGI (NCI-H522 lung) | TGI (NCI/ADR-RES ovarian) | TGI (OVCAR-3 ovarian) | TGI (OVCAR-4 ovarian) | TGI (OVCAR-5 ovarian) | TGI (OVCAR-8 ovarian) | TGI (PC-3 prostate) | TGI (RXF 393 renal) | TGI (SF-268 CNS) | TGI (SF-295 CNS) | TGI (SF-539 CNS) | TGI (SK-MEL-28 melanoma) | TGI (SK-MEL-5 melanoma) | TGI (SN12C renal) | TGI (SNB-19 CNS) | TGI (SNB-75 CNS) | TGI (SR leukemia) | TGI (SW-620 colon) | TGI (T-47D breast) | TGI (TK-10 renal) | TGI (UACC-257 melanoma) | TGI (UACC-62 melanoma) | TGI (UO-31 renal)
26.7 µM: TGI (HL-60(TB) leukemia)
27.6 µM: TGI (RPMI-8226 leukemia)
